From US20250221410A1, “SUBSTITUTED 2-C-AZINES AND SALTS THEREOF, AND USE THEREOF AS HERBICIDAL ACTIVE SUBSTANCES” (BAYER AKTIENGESELLSCHAFT, priority 2022, published 2025)

Key:
Type in all cases: in vivo
[1] = tested on: AMARE: Amaranthus retroflexus; assay: Post-emergence herbicidal efficacy at 80 g/ha, AMARE; settings: visual rating about 3 weeks after treatment vs untreated controls
Experimental: Seeds of monocotyledonous and dicotyledonous weeds and crop plants were placed in sandy loam in plastic or organic planting pots, covered with soil and cultivated in a greenhouse under controlled growth conditions. 2 to 3 weeks after sowing, the test plants were treated at the one-leaf stage. The compounds of the invention, formulated in the form of wettable powders (WP) or as emulsion concentrates (EC), were then sprayed onto the green parts of the plants as aqueous suspension or emulsion with addition of 0.5% additive at a water application rate of 600 l/ha (converted). After the test plants had been kept in the greenhouse under optimum growth conditions for about 3 weeks, the activity of the preparations was rated visually in comparison to untreated controls. For example, 100% activity=the plants have died, 0% activity=like control plants. Tables B1 to B10 below show the effects of selected compounds of the general formula (I) according to Table 1 on various harmful plants and an application rate corresponding to 80 g/ha, which were obtained by the experimental procedure mentioned above.

[2] = tested on: AMARE: Amaranthus retroflexus; assay: Post-emergence herbicidal efficacy at 1280 g/ha, AMARE; settings: rated visually after about 3 weeks vs untreated controls, 100% = plants have died, 0% = like control plants
Experimental: (§1) Seeds of mono- and dicotyledonous weed plants were placed in plastic pots in sandy loam soil (doubly sown with in each case one species of mono- or dicotyledonous weed plants per pot), covered with soil and cultivated in a greenhouse under controlled growth conditions. 2 to 3 weeks after sowing, the test plants were treated at the one-leaf stage. The compounds of the invention, formulated in the form of wettable powders (WP) or as emulsion concentrates (EC), were applied to the green parts of the plants as aqueous suspension or emulsion with addition of 0.5% additive at a water application rate equivalent to 600 litres per hectare. After the test plants had been kept in the greenhouse under optimum growth conditions for about 3 weeks, the activity of the preparations was rated visually in comparison to untreated controls. For example, 100% activity=the plants have died, 0% activity=like control plants. Tables A1 to A12 below show the effects of selected compounds of the general formula (I) according to Table 1 on various harmful plants and at an application rate corresponding to 1280 g/ha, which were obtained by the trial procedure specified above.

POAAN: Poa annua [3] = assay: Post-emergence herbicidal efficacy at 1280 g/ha, POAAN; settings: visual rating about 3 weeks after treatment vs untreated controls
Experimental: as §1

SETVI: Setaria viridis [4] = assay: Post-emergence herbicidal efficacy at 1280 g/ha, SETVI; settings: visual rating about 3 weeks after treatment vs untreated controls
Experimental: as §1

[5] = tested on: AMARE: Amaranthus retroflexus; assay: Pre-emergence herbicide efficacy at 1280 g/ha, AMARE; settings: visual scoring after about 3 weeks vs untreated controls
Description: (§2) Seeds of mono- and dicotyledonous weed plants were placed in plastic pots in sandy loam soil (doubly sown with one species each of mono- or dicotyledonous weed plants per pot) and covered with soil. The compounds of the invention, formulated in the form of wettable powders (WP) or as emulsion concentrates (EC), were then applied to the surface of the covering soil as aqueous suspension or emulsion with addition of 0.5% additive at a water application rate of 600 litres per hectare (converted). After the treatment, the pots were placed in a greenhouse and kept under good growth conditions for the test plants. After about 3 weeks, the efficacy of the preparations was scored visually in comparison with untreated controls as percentages. For example, 100% activity=the plants have died, 0% activity=like control plants. Tables C1 to C12 below show the effects of selected compounds of the general formula (I) according to Table 1 on various harmful plants and at an application rate corresponding to 1280 g/ha, which were obtained by the trial procedure specified above.

[6] = tested on: DIGSA: Digitaria sanguinalis; assay: Pre-emergence herbicide efficacy at 1280 g/ha, DIGSA; settings: visual scoring after about 3 weeks vs untreated controls
Description: as §2

KCHSC: Kochia scoparia [7] = assay: Pre-emergence herbicide efficacy at 1280 g/ha, KCHSC; settings: visual scoring after about 3 weeks vs untreated controls
Description: as §2

POAAN: Poa annua [8] = assay: Pre-emergence herbicide efficacy at 1280 g/ha, POAAN; settings: visual scoring after about 3 weeks vs untreated controls
Description: as §2

SETVI: Setaria viridis [9] = assay: Pre-emergence herbicide efficacy at 1280 g/ha, SETVI; settings: visual scoring vs untreated controls
Description: as §2

[10] = tested on: ABUTH: Abutilon theophrasti; assay: Post-emergence herbicidal efficacy at 1280 g/ha, ABUTH; settings: rated visually after about 3 weeks vs untreated controls, 100% = plants have died, 0% = like control plants
Experimental: as §1

KCHSC: Kochia scoparia [11] = assay: Post-emergence herbicidal efficacy at 1280 g/ha, KCHSC; settings: visual rating about 3 weeks after treatment vs untreated controls
Experimental: as §1

STEME: Stellaria media [12] = assay: Post-emergence herbicidal efficacy at 1280 g/ha, STEME; settings: visual rating about 3 weeks after treatment vs untreated controls
Experimental: as §1

VERPE: Veronica persica [13] = assay: Post-emergence herbicidal efficacy at 1280 g/ha, VERPE; settings: visual rating about 3 weeks after treatment vs untreated controls
Experimental: as §1

[14] = tested on: ABUTH: Abutilon theophrasti; assay: Pre-emergence herbicide efficacy at 1280 g/ha, ABUTH; settings: visual scoring after about 3 weeks vs untreated controls
Description: as §2

[15] = tested on: ECHCG: Echinochloa crus-galli; assay: Pre-emergence herbicide efficacy at 1280 g/ha, ECHCG; settings: visual scoring after about 3 weeks vs untreated controls
Description: as §2

STEME: Stellaria media [16] = assay: Pre-emergence herbicide efficacy at 1280 g/ha, STEME; settings: visual scoring vs untreated controls
Description: as §2

VERPE: Veronica persica [17] = assay: Pre-emergence herbicide efficacy at 1280 g/ha, VERPE; settings: visual scoring vs untreated controls
Description: as §2

SMILES | Post-emergence efficacy against AMARE [1] [%] | Post-emergence efficacy at 1280 g/ha against AMARE in % [2] [%] | Post-emergence efficacy against POAAN (POAAN: Poa annua [3]) [%] | Post-emergence efficacy against SETVI (SETVI: Setaria viridis [4]) [%] | Pre-emergence efficacy against AMARE [5] [%] | Pre-emergence efficacy against DIGSA [6] [%] | Pre-emergence efficacy against KCHSC (KCHSC: Kochia scoparia [7]) [%] | Pre-emergence efficacy against POAAN (POAAN: Poa annua [8]) [%] | Pre-emergence efficacy against SETVI in % (SETVI: Setaria viridis [9]) [%] | Post-emergence efficacy at 1280 g/ha against ABUTH in % [10] [%] | Post-emergence efficacy against KCHSC (KCHSC: Kochia scoparia [11]) [%] | Post-emergence efficacy against STEME (STEME: Stellaria media [12]) [%] | Post-emergence efficacy against VERPE (VERPE: Veronica persica [13]) [%] | Pre-emergence efficacy against ABUTH [14] [%] | Pre-emergence efficacy against ECHCG [15] [%] | Pre-emergence efficacy against STEME in % (STEME: Stellaria media [16]) [%] | Pre-emergence efficacy against VERPE in % (VERPE: Veronica persica [17]) [%]
O=S(=O)(CCCC(F)(F)F)Oc1c(F)cccc1Cc1ncc(F)cn1 [Example 1-15] | 90 | – | – | – | – | – | – | – | – | – | – | – | – | – | – | – | –
O=S(=O)(CCCC(F)(F)F)Oc1c(Cl)cccc1Cc1ncc(Cl)cn1 [Example 1-18] | 90 | – | – | – | – | – | – | – | – | – | – | – | – | – | – | – | –
O=S(=O)(CCC(F)(F)F)Oc1c(Cl)cccc1Cc1ncc(Cl)cn1 [Example 1-20] | 90 | – | – | – | – | – | – | – | – | – | – | – | – | – | – | – | –
Fc1ccc(Oc2ccccc2Cc2ccc(Cl)cn2)cc1 [Example 1-74] | – | 90 | 90 | 90 | 100 | 100 | 90 | 100 | 100 | – | – | – | – | – | – | – | –
Fc1ccc(Cc2ccccc2Cc2ncc(F)cn2)cc1 [Example 1-95] | – | 100 | 100 | 90 | 100 | 90 | 90 | 90 | – | 100 | 100 | 100 | 90 | 100 | 90 | 100 | 100
Fc1ccc(Oc2ccccc2Cc2ncccn2)cc1 [Example 1-98] | – | 100 | 90 | – | 100 | 100 | – | 90 | 90 | – | 90 | 90 | 100 | 100 | 90 | 90 | 90
Fc1ccc(Cc2ccccc2Oc2ncc(Cl)cc2F)nc1 [Example 1-103] | – | 100 | 100 | 90 | 100 | 90 | – | 90 | 100 | 100 | 90 | 100 | 100 | 100 | 90 | 100 | 90
Fc1ccc(-c2ccccc2Cc2ncc(Cl)cc2F)cc1F [Example 1-127] | – | 100 | 100 | 90 | 100 | 90 | 90 | 90 | 100 | 100 | 100 | 100 | 100 | – | – | 90 | 90
[O-][S+](c1ccc(F)cc1)c1ccccc1Cc1ncc(Cl)cn1 (stereo not shown) [Example 1-142] | 80 | – | – | – | – | – | – | – | – | – | – | – | – | – | – | – | –
O=S(=O)(CCC(F)(F)F)c1ccccc1Cc1ncc(F)cn1 [Example 1-150] | 80 | – | – | – | – | – | – | – | – | – | – | – | – | – | – | – | –
